Assay results from PMC9049938 (2020).

Key:
Test in all cases: BLI
[1] = tested on: N59a (DNA, aptamer) CCACCAGGCCAAACACGACCCCAAACA; conditions: 150 mM NaCl, 2 mM MgCl2, 50 mM Tris-HCl pH 7.5
[2] = tested on: N11 (DNA, aptamer) GAGGCAGCACTTCACACGATCGGACCCAAACTTTACCTTACCCCCATCTGCGTAATGACTGTAGTGATG; conditions: 150 mM NaCl, 2 mM MgCl2; 50 mM Tris-HCl pH 7.5
[3] = tested on: N16 (DNA, aptamer) GAGGCAGCACTTCACACGATATTTGGGGATCAGCCAGGTCAGTGCCACTGCGTAATGACTGTAGTGATG; conditions: 150 mM NaCl, 2 mM MgCl2; 50 mM Tris-HCl pH 7.5
[4] = tested on: N50 (DNA, aptamer) GAGGCAGCACTTCACACGATCGTCCCTGCCCCTGCCTCCTTTCTATGCTGCGTAATGACTGTAGTGATG; conditions: 150 mM NaCl, 2 mM MgCl2; 50 mM Tris-HCl pH 7.5
[5] = tested on: N59 (DNA, aptamer) GAGGCAGCACTTCACACGATCCACCAGGCCAAACACGACCCCAAACACTGCGTAATGACTGTAGTGATG; conditions: 150 mM NaCl, 2 mM MgCl2; 50 mM Tris-HCl pH 7.5
[6] = tested on: N41 (DNA, aptamer) GAGGCAGCACTTCACACGATCCCCCCCACACTCTTCCAACCCCCTCTCTGCGTAATGACTGTAGTGATG; conditions: 150 mM NaCl, 2 mM MgCl2; 50 mM Tris-HCl pH 7.5

| KD [1] [µM] | KD [2] [µM] | KD [3] [µM] | KD [4] [µM] | KD [5] [µM] | KD [6] [µM] | KD ([1]; Table S3 prints 64 nM) [µM] | SMILES |
| --- | --- | --- | --- | --- | --- | --- | --- |
| 30.5 |  |  |  |  |  |  | C=C1[C@@H](O)[C@@H]2O[C@]3(CC[C@H](/C=C/[C@@H](C)[C@@H]4CC(C)=C[C@@]5(O[C@H](C[C@@](C)(O)C(=O)O)CC[C@H]5O)O4)O3)CC[C@H]2O[C@@H]1[C@@H](O)C[C@H](C)[C@H]1O[C@@]2(CCCCO2)CC[C@H]1C |
|  | 0.498 | 0.729 | 2.57 | 0.17 | 1890 | 0.064 | C=C1[C@@H](O)[C@@H]2O[C@]3(CC[C@H](/C=C/[C@@H](C)[C@@H]4CC(C)=C[C@@]5(O[C@H](C[C@@](C)(O)C(=O)O)CC[C@H]5O)O4)O3)CC[C@H]2O[C@@H]1[C@@H](O)C[C@H](C)[C@H]1O[C@@]2(CC[C@H]1C)OCCC[C@H]2C |
